PubChem BioAssay (NCI)
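Exposure lasted 48 hours, with cells grown in 96-well plates and compounds tested at five concentrations. GI50 is the concentration that inhibits growth by half. TGI marks complete inhibition of growth.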

test system: PC-3 prostate; experiment: NCI anticancer screen, dose series, 48 h

Point of comparison: `O=C(NCCNCCO)c1ccc2c(c1)oc1cc3ccccc3c(=O)n12`, GI50 35.5 µM. Against it:
- COc1ccc(C(=O)c2cc(OC)c(OC)c(OC)c2OC)cc1O — 8.7-fold lower, 4.06 µM
- CCCCCOc1ccc(/C=N/Nc2cc(C)nc3ccc(Cl)cc23)cc1 — 22-fold lower, 1.61 µM
- COC(=O)OC1C(O[C@H]2C[C@H]3[C@@H]4CC=C5C[C@@H](O)CC[C@]5(C)[C@H]4CC[C@]3(C)[C@H]2[C@H](C)C(=O)CCC(C)C)OCC(O)C1OC1OCC(O)C(O)C1OC(=O)c1ccc(OC)cc1 (stereo partly drawn) — 8100-fold lower, 0.00436 µM
- CCCCCCCCCCCC[N+]1(CCCCCCCCCCCC)CCCC(C)C1 (stereo not drawn) — 210-fold lower, 0.167 µM

Point of comparison: `COC(=O)OC1C(O[C@H]2C[C@H]3[C@@H]4CC=C5C[C@@H](O)CC[C@]5(C)[C@H]4CC[C@]3(C)[C@H]2[C@H](C)C(=O)CCC(C)C)OCC(O)C1OC1OCC(O)C(O)C1OC(=O)c1ccc(OC)cc1` (stereo partly drawn), TGI 0.29 µM. Against it:
- COc1ccc(C(=O)c2cc(OC)c(OC)c(OC)c2OC)cc1O — higher, > 100 µM
- CCCCCOc1ccc(/C=N/Nc2cc(C)nc3ccc(Cl)cc23)cc1 — 11-fold higher, 3.1 µM
- O=C(NCCNCCO)c1ccc2c(c1)oc1cc3ccccc3c(=O)n12 — higher, > 50 µM
- CCCCCCCCCCCC[N+]1(CCCCCCCCCCCC)CCCC(C)C1 (stereo not drawn) — 1.8-fold higher, 0.536 µM

test system: SF-295 CNS; experiment: NCI anticancer screen, dose series, 48 h

Point of comparison: `CCCCCOc1ccc(/C=N/Nc2cc(C)nc3ccc(Cl)cc23)cc1`, TGI 3.34 µM. Against it:
- Cc1nc2ccccc2nc1CC(=O)C(=O)Nc1ccc(Cl)cc1Cl — higher, > 100 µM
- COc1cc(Nc2cnc3ccc(C(F)(F)F)cc3n2)cc(OC)c1OC — 27-fold higher, 91.2 µM
- O=C1[C@@H]2C(c3c(Cl)cccc3Cl)=NO[C@@H]2C(=O)N1c1ccc(Cc2ccc(N3C(=O)[C@H]4C(c5c(Cl)cccc5Cl)=NO[C@H]4C3=O)cc2)cc1 — higher, > 100 µM
- O=C1NC2=C(CCCCC/C2=N\O)C12CCCCCC2 — higher, > 100 µM
- CCc1cccc(C)c1NC(=O)CCc1nc(=S)[nH][nH]1 — higher, > 100 µM
- N#C/C(=C\c1cc(OCc2ccccc2)c(OCc2ccccc2)cn1)C(N)=O — higher, > 100 µM
- COC(=O)C1C(C(=O)OC)C2C(=O)C3C(C(=O)OC)C(C(=O)OC)C3C(=O)C12 (stereo not drawn) — higher, > 100 µM
- O=C(NC12CC3CCC1CC(C3)C2)[C@@H]1CCCN1C(=O)OCc1ccccc1 (stereo partly drawn) — higher, > 100 µM
- O=C1NC(=O)c2c1n(Cc1ccccc1)c(=O)n2Cc1ccccc1 — higher, > 100 µM
- Cc1nc(N)nc(CCC(=O)Nc2cccc(C(F)(F)F)c2)c1-c1ccc(Cl)cc1 — higher, > 100 µM
- COc1cc([C@@H]2c3cc4c(cc3[C@@H](NC(=O)c3ccc(C#N)cc3)C3COC(=O)[C@@H]32)OCO4)cc(OC)c1O (stereo partly drawn) — 3.5-fold higher, 11.8 µM
- O=[N+]([O-])c1cccc(C2=NN(c3ccccc3)C3c4cc(Br)ccc4OCC23)c1 (stereo not drawn) — higher, > 100 µM
- COc1ccc(C(=O)c2cc(OC)c(OC)c(OC)c2OC)cc1O — 1.6-fold higher, 5.18 µM
- COc1cc2oc(-c3ccc(O)cc3)cc(=O)c2c(O)c1C1OC(CO)C(O)C(O)C1O (stereo not drawn) — higher, > 100 µM
- C[C@]12Cc3cn[nH]c3C(=O)C1CC[C@@H]1C2CC[C@@]2(C)C1CC[C@@H]2O (stereo partly drawn) — higher, > 100 µM
- NNC(=O)C(=O)N/N=C1/CCCC1C(=O)CCC(=O)Nc1ccc(Cl)cc1 (stereo not drawn) — higher, > 100 µM
- COC(=O)CCC(NC(=S)N/N=C/c1cccs1)C(=O)OC (stereo not drawn) — higher, > 100 µM
- O=c1/c(=C/c2ccccc2[N+](=O)[O-])sc2nnc(-c3cccnc3)n12 — higher, > 100 µM
- COC(=O)/C=C(/C(=O)OC)C1(C)c2cc(C(=O)OC)c(C(=O)OC)c(N)c2C(=N)N1c1ccccc1 (stereo not drawn) — 12-fold higher, 40.2 µM
- O=C(NCCNCCO)c1ccc2c(c1)oc1cc3ccccc3c(=O)n12 — higher, > 50 µM
- COC(=O)OC1C(O[C@H]2C[C@H]3[C@@H]4CC=C5C[C@@H](O)CC[C@]5(C)[C@H]4CC[C@]3(C)[C@H]2[C@H](C)C(=O)CCC(C)C)OCC(O)C1OC1OCC(O)C(O)C1OC(=O)c1ccc(OC)cc1 (stereo partly drawn) — lower, < 0.00275 µM
- CCOC(=O)c1nc(C)oc1C(F)(F)F — higher, > 100 µM
- Cc1ccc(S(=O)(=O)OCC/C(=C\[Si](C)(C)C)c2ccccc2)cc1 — higher, > 100 µM
- COc1nc2c(c(O)c(C)c(=O)n2OC2OCC(OC(C)=O)C(OC(C)=O)C2OC(C)=O)c(=O)n1C (stereo not drawn) — higher, > 100 µM
- CCc1ccccc1NC(=O)c1cccc([N+](=O)[O-])c1O — 9.6-fold higher, 32.2 µM
- O=C(NC1C(=O)NNC1c1cccc([N+](=O)[O-])c1)c1ccccc1 (stereo not drawn) — higher, > 100 µM
- CCCCCCCCCCCC[N+]1(CCCCCCCCCCCC)CCCC(C)C1 (stereo not drawn) — 2.6-fold lower, 1.29 µM

Point of comparison: `CCCCCOc1ccc(/C=N/Nc2cc(C)nc3ccc(Cl)cc23)cc1`, GI50 1.77 µM. Against it:
- N#CC(C(=O)C(=O)Nc1c(Cl)cccc1Cl)c1ccccc1 (stereo not drawn) — higher, > 100 µM
- COc1ccc(C(=O)c2cc(OC)c(OC)c(OC)c2OC)cc1O — within 1.5-fold, 1.94 µM
- O=C(NCCNCCO)c1ccc2c(c1)oc1cc3ccccc3c(=O)n12 — higher, > 50 µM
- COC(=O)OC1C(O[C@H]2C[C@H]3[C@@H]4CC=C5C[C@@H](O)CC[C@]5(C)[C@H]4CC[C@]3(C)[C@H]2[C@H](C)C(=O)CCC(C)C)OCC(O)C1OC1OCC(O)C(O)C1OC(=O)c1ccc(OC)cc1 (stereo partly drawn) — lower, < 0.00275 µM
- CCCCCCCCCCCC[N+]1(CCCCCCCCCCCC)CCCC(C)C1 (stereo not drawn) — 6.8-fold lower, 0.259 µM

test system: SK-OV-3 ovarian; experiment: NCI anticancer screen, dose series, 48 h

Point of comparison: `COC(=O)OC1C(O[C@H]2C[C@H]3[C@@H]4CC=C5C[C@@H](O)CC[C@]5(C)[C@H]4CC[C@]3(C)[C@H]2[C@H](C)C(=O)CCC(C)C)OCC(O)C1OC1OCC(O)C(O)C1OC(=O)c1ccc(OC)cc1` (stereo partly drawn), TGI 0.611 µM. Against it:
- Cc1nc2ccccc2nc1CC(=O)C(=O)Nc1ccc(Cl)cc1Cl — higher, > 100 µM
- O=C1[C@@H]2C(c3c(Cl)cccc3Cl)=NO[C@@H]2C(=O)N1c1ccc(Cc2ccc(N3C(=O)[C@H]4C(c5c(Cl)cccc5Cl)=NO[C@H]4C3=O)cc2)cc1 — higher, > 100 µM
- O=C1NC2=C(CCCCC/C2=N\O)C12CCCCCC2 — higher, > 100 µM
- CCc1cccc(C)c1NC(=O)CCc1nc(=S)[nH][nH]1 — higher, > 100 µM
- N#C/C(=C\c1cc(OCc2ccccc2)c(OCc2ccccc2)cn1)C(N)=O — higher, > 100 µM
- N#CC(C(=O)C(=O)Nc1c(Cl)cccc1Cl)c1ccccc1 (stereo not drawn) — higher, > 100 µM
- COC(=O)C1C(C(=O)OC)C2C(=O)C3C(C(=O)OC)C(C(=O)OC)C3C(=O)C12 (stereo not drawn) — higher, > 100 µM
- O=C(NC12CC3CCC1CC(C3)C2)[C@@H]1CCCN1C(=O)OCc1ccccc1 (stereo partly drawn) — higher, > 100 µM
- O=C1NC(=O)c2c1n(Cc1ccccc1)c(=O)n2Cc1ccccc1 — higher, > 100 µM
- Cc1nc(N)nc(CCC(=O)Nc2cccc(C(F)(F)F)c2)c1-c1ccc(Cl)cc1 — higher, > 100 µM
- COc1cc([C@@H]2c3cc4c(cc3[C@@H](NC(=O)c3ccc(C#N)cc3)C3COC(=O)[C@@H]32)OCO4)cc(OC)c1O (stereo partly drawn) — 4.7-fold higher, 2.87 µM
- O=[N+]([O-])c1cccc(C2=NN(c3ccccc3)C3c4cc(Br)ccc4OCC23)c1 (stereo not drawn) — higher, > 100 µM
- COc1ccc(C(=O)c2cc(OC)c(OC)c(OC)c2OC)cc1O — 150-fold higher, 90.1 µM
- CCCCCOc1ccc(/C=N/Nc2cc(C)nc3ccc(Cl)cc23)cc1 — 5-fold higher, 3.08 µM
- COc1cc2oc(-c3ccc(O)cc3)cc(=O)c2c(O)c1C1OC(CO)C(O)C(O)C1O (stereo not drawn) — higher, > 100 µM
- C[C@]12Cc3cn[nH]c3C(=O)C1CC[C@@H]1C2CC[C@@]2(C)C1CC[C@@H]2O (stereo partly drawn) — higher, > 100 µM
- NNC(=O)C(=O)N/N=C1/CCCC1C(=O)CCC(=O)Nc1ccc(Cl)cc1 (stereo not drawn) — higher, > 100 µM
- COC(=O)CCC(NC(=S)N/N=C/c1cccs1)C(=O)OC (stereo not drawn) — higher, > 100 µM
- COC(=O)/C=C(/C(=O)OC)C1(C)c2cc(C(=O)OC)c(C(=O)OC)c(N)c2C(=N)N1c1ccccc1 (stereo not drawn) — higher, > 100 µM
- O=C(NCCNCCO)c1ccc2c(c1)oc1cc3ccccc3c(=O)n12 — higher, > 50 µM
- CCOC(=O)c1nc(C)oc1C(F)(F)F — higher, > 100 µM
- Cc1ccc(S(=O)(=O)OCC/C(=C\[Si](C)(C)C)c2ccccc2)cc1 — higher, > 100 µM
- CCc1ccccc1NC(=O)c1cccc([N+](=O)[O-])c1O — higher, > 100 µM

Point of comparison: `CCCCCOc1ccc(/C=N/Nc2cc(C)nc3ccc(Cl)cc23)cc1`, GI50 1.65 µM. Against it:
- N#CC(C(=O)C(=O)Nc1c(Cl)cccc1Cl)c1ccccc1 (stereo not drawn) — higher, > 100 µM
- COc1ccc(C(=O)c2cc(OC)c(OC)c(OC)c2OC)cc1O — 2-fold higher, 3.33 µM
- O=C(NCCNCCO)c1ccc2c(c1)oc1cc3ccccc3c(=O)n12 — higher, > 50 µM
- COC(=O)OC1C(O[C@H]2C[C@H]3[C@@H]4CC=C5C[C@@H](O)CC[C@]5(C)[C@H]4CC[C@]3(C)[C@H]2[C@H](C)C(=O)CCC(C)C)OCC(O)C1OC1OCC(O)C(O)C1OC(=O)c1ccc(OC)cc1 (stereo partly drawn) — 230-fold lower, 0.0073 µM
